Entries after “also recorded” stand apart in the source; their conditions may differ.
Experiments:
SUDHL8 = assay: DLBCL cell line proliferation (Cell Titer Glo, four days): SUDHL8; assay type: cell-based; conditions: SUDHL8, GCB
Method: (§1) DLBCL cell line TOLEDO was cultured in the presence of Compound A or clinical reversible menin inhibitors for six and fourteen hours. Menin protein expression was reduced up to 60% at 1 μM by Compound A after fourteen hours compared to clinical reversible inhibitors at <20% at similar concentrations. Menin protein expression was measured by the Wes system and analyzed using the Compass software (automated western blotting, Protein Simple). Signal was normalized to GAPDH and referenced to DMSO control (FIG. 36E). DLBCL and MM cell lines were cultured with Compound A, bortezomib (PS-341), or DMSO for four days and cell proliferation was measured by Cell Titer Glo. Ex vivo studies of DLBCL and MM models were conducted by measurement of cell proliferation (Cell Titer Glo) after six days of treatment with Compound A, PS-341, or DMSO control.

Pfeiffer = assay: DLBCL cell line proliferation (Cell Titer Glo, four days): Pfeiffer; assay type: cell-based; conditions: GCB
Method: as §1

SKMM1 = assay: MM cell line proliferation (Cell Titer Glo, four days): SKMM1; assay type: cell-based; conditions: SKMM1, t(14; 20), NRAS G12A
Method: as §1

MM cell lines = assay: MM cell line panel proliferation (Cell Titer Glo, four days); assay type: cell-based
Method: Compound A was tested against a THL cell line (VAL), and a DEL cell line (U2932). An expanded panel of DHL cell lines were tested for sensitivity to Compound A. Ex vivo patient samples of THL and MYC-amplified DLBCL were tested with Compound A. Sensitivity of THL and MYC-driven DLBCL in both in vitro and ex vivo models were compared with clinical reversible menin inhibitors. Compound A was tested against a panel of MM cell lines and ex vivo MM patient samples of p53del, 13qdel, and relapsed/refractory cases.
as §1

[1] = system: Zucker diabetic fatty rats (ZDF rats); assay: Glycemic control in Zucker diabetic fatty rats, 16-day dosing plus two-week washout; assay type: in vivo, rat
Method: The present examples provides the ability of Compound 10 to restore glycemic control to diabetic Zucker diabetic fatty rats (ZDF rats, genotype ZDF-Lepr^fa/Crl; Charles River). Cornicelli et al., 2005, Charles River.
Control and test compounds were stored at 4° C. and prepared weekly as needed. The vehicle for positive control pioglitazone was 0.25% carboxymethylcellulose and 1% Tween® 80 in reverse osmosis deionized water. The vehicle for Compound 10 was 10% DMSO, 10% Solutol HS 15, and 80% (10% hydroxypropyl-β-cyclodextrin in 50 mM citrate buffer at pH 3.0).
On Day −3, twenty-four ZDF rats (plus eight spare ZDF rats) were measured for body weight and non-fasting glucose. LabDiet 5008 was provided ad libitum throughout the study, except during designated procedures, as was water. In order to minimize the effects of stress on blood glucose and body, all animals including the spares received daily sham doses with phosphate buffered saline pH 7.2 (dose volume 5 mL/kg) via gavage beginning on Study Day −5 to Day −1.
Vehicle, control, and test compound were administered via oral gavage according to the following design on Days 1-16.
On Days −3, 1, 8, and 14 non-fasting blood glucose was measured. On Day 15, an oral glucose tolerance test was administered. The animals were weighed, and the animals were placed in clean cages without food. Access to water was provided throughout the procedure. The animals were fasted for five hours and a blood glucose measurement was determined. The animals were dosed via oral gavage with 2 g/kg glucose (10 mL/kg). Blood glucose was determined via tail snip. The second drop of blood from the animal was placed on a hand-held glucometer (Abbott Alpha Trak) at the following times relative to the glucose dose: zero (just prior to glucose dose), 15, 30, 60, 90, and 120 min. Following the final blood glucose measurement, food was returned to the cages. On Day 17, 4-hour fasting glucose was measured. Serum samples were used to measure insulin by ELISA. Analysis was performed in one to three days of each collections. On Day 17, terminal blood collection was obtained at about 8 mL per animal and measured for blood glucose.
ZDF rats were treated daily with Compound 10, vehicle, or pioglitazone for sixteen days and monitored for an additional two weeks post-treatment until Day 29. STZ rat models were induced through pre-treatment of animals on a high-fat diet with low doses of streptozotocin at Day −14 and Day −7 prior to starting treatment at Day Zero until Day 16. ZDF and STZ rats were monitored for fasting blood glucose levels, oral glucose tolerance test (OGTT), insulin and C-peptide levels, HOMA-IR (Homeostatic Model Assessment of Insulin Resistance), blood lipemic levels, and body weight according to the schematic for each model below. ZDF rats were analyzed for indicated readouts for fifteen days post-treatment for OGTT at Day 29, and serum insulin and C-peptide at Day 31.
ZDF Rat Model—three treatment groups 1. Vehicle; 2. Compound 10 at 175 mg/kg; and 3. Pioglitazone at 30 mg/kg; n=10 per group. Daily dosing zero to sixteen days QD→drug wash out at sixteen to twenty-nine days. Rats were monitored for the following parameters through dosing and wash out phases—body weight, fasting blood sugar, blood insulin, C-peptide, and OGTT.

U2932 = assay: DLBCL cell line proliferation (Cell Titer Glo, four days): U2932; assay type: cell-based; conditions: U2932, DEL-ABC, MYC/BCL2 Overexpression
Method: as §1

[2] = system: KRAS and MEN1 expression in MiaPaCa-2 cells; assay: RNA-seq gene expression in MiaPaCa-2 cells; assay type: cell-based, human; conditions: 0.5 μM and 1 μM, twenty-four hours
Method: MOLM-13 and MiaPaCa-2 cells were incubated with Compound A for twenty-four hours and were analyzed by RNA-seq on an Illumina NextSeq 550 platform. […] Cell viability was measured using CellTiter Glo. Human ex vivo PDX tissue models harboring KRAS mutations were cultured with Compound A and clinical reversible menin inhibitors for six days. Cell viability was measured using CellTiter Glo.

[3] = ZDF rats, 175 mg/kg/day PO QD, compared to vehicle and control

## C=CC(=O)N[C@@H]1CCCN(Cc2ccnc(C(=O)Nc3ccc(-c4cc5c(N6CCOCC6)ncnc5[nH]4)cc3)c2)C1 [Compound A, N-[4-[4-(4-morpholinyl)-7H-pyrrolo[2,3-d]pyrimidin-6-yl]phenyl]-4-[[3(R)-[(1-oxo-2-propen-1-yl)amino]-1-piperidinyl]methyl]-2-pyridinecarboxamide]
SUDHL8
  Average % Max Inhibition by Compound A: 99.6%
Pfeiffer
  Average % Max Inhibition by Compound A: 99.6%
SKMM1
  Average % Max Inhibition by Compound A: 99.2%
SKMM1; read-out: Average IC50 ± Standard Deviation
  IC50: 467 ± 50 nM
MM cell lines; MM cell lines
  cell lethality: > 99%
MM cell lines; MM cell lines harboring mutations in TP53, KRAS, and NRAS, 1 μM exposure, single agent
  growth inhibition: 100%
[1]; [3]
  glucose, non-fasting and fasting states: significant reduction of glucose
  insulin, non-fasting and fasting states: significant reduction of insulin
[1]; ZDF rats, 175 mg/kg/day PO QD, non-fasting and fasting, vs vehicle, listed as Compound 10, 175 mg/kg/day
  insulin resistance (HOMA-IR): significant reduction of insulin resistance; also recorded: reduced HOMA-IR
[1]; ZDF rats, Day 15, p<0.001
  OGTT AUC reduction: 54%
[1]; ZDF rats, Day 29, after fourteen days of no treatment
  oral glucose tolerance test, glucose control: significant glucose control
[1]; ZDF rats, Day 29, drug washout, ~two weeks after the last dose, p<0.05
  OGTT AUC reduction: 40%
[1]; ZDF rats, after fifteen days of treatment (Day 15)
  oral glucose tolerance test, glucose control: significant glucose control
[1]; ZDF rats, after two weeks of treatment
  reduction in fasting and non-fasting blood glucose levels: ~50%
[1]; ZDF rats, after two weeks of treatment, p<0.05
  serum insulin and C-peptide levels: significantly reduced
[1]; ZDF rats, no therapy for two weeks
  4-hour fasting insulin and glucose after washout: increasing insulin and glucose lowering
[1]; ZDF rats, sixteen days treatment (FIG. 26)
  insulin sensitivity: increases insulin sensitivity
[1]; ZDF rats, two weeks after therapy
  C-peptide: increasing C-peptide
[1]; treated ZDF rats, sixteen days (FIG. 27)
  blood lipemic levels and body weight: significantly reduces blood lipemic levels and reduces body weight
U2932; Homo sapiens, read-out: Average IC50 ± Standard Deviation
  IC50: 370 ± 12 nM
U2932
  Average % Max Inhibition by Compound A: 92.4%
[2]
  KRAS and MEN1 expression levels: marked reduction; also recorded: dramatically decreased

Source: patent US20240417404A1, “CRYSTALLINE FORMS OF N-[4-[4-(4-MORPHOLINYL)-7H-PYRROLO[2,3-d]PYRIMIDIN-6-YL]PHENYL]-4-[[3(R)-[(1-OXO-2-PROPEN-1-YL)AMINO]-1-[sequence]]METHYL]-2-PYRIDINECARBOXAMIDE AS IRREVERSIBLE INHIBITORS OF MENIN-MLL INTERACTION” (BIOMEA FUSION, INC., priority 2023, published 2024)
